Values after ≈ are worked out from the molar mass of the structure shown. Read-outs that look alike come from different tables or passages of the source.
Experiments:
Format in all cases: cell-based
[1] = tested on: wild-type Mycobacterium tuberculosis H37Rv [野生型结核分枝杆菌(H37Rv)]; experiment: microbe, parasite or virus in culture; settings: Alamar Blue, 37℃, 10 days + 1 day; for MIC: compound alone; for MIC + TB47: with TB47 0.003 μg/mL
[2] = tested on: autoluminescent Mycobacterium tuberculosis H37Ra [自主发光Mtb H37Ra]; experiment: microbe, parasite or virus in culture
[3] = tested on: Mycobacterium tuberculosis H37Ra [结核分枝杆菌H37Ra]
[4] = Mycobacterium tuberculosis, read-out: MIC
[5] = Mycobacterium tuberculosis, H37RA, read-out: MIC

SMILES: O=C(Nc1ccnc(C(F)(F)F)c1)c1cc(Cl)ccc1O [化合物4, 5-氯-2-羟基-N-(2-三氟甲基-4-吡啶基)-苯甲酰胺]
- MIC [1, 4]: 2 µg/mL
- MIC [1]: 2 µg/mL
- MIC + TB47 [1]: < 0.125 µg/mL
- MIC [2]: 1.25 µg/mL (≈ 3.95 µM)
- MIC [2, 5]: 1.25 µg/mL (≈ 3.95 µM)
- MIC in synergy with TB47 [3]: 0.625 µg/mL

SMILES: O=C(Nc1cncc(Cl)n1)c1cc(Cl)ccc1O [化合物10, 5-氯-N-(6-氯-2-吡嗪基)-2-羟基苯甲酰胺]
- MIC [1, 4]: 4 µg/mL
- MIC + TB47 [1]: 0.25 µg/mL
- MIC [2, 5]: 2.5 µg/mL (≈ 8.8 µM)

SMILES: O=C(Nc1cnc(C(F)(F)F)cn1)c1cc(Cl)ccc1O [化合物11, 5-氯-2-羟基-N-(5-三氟甲基-2-吡嗪基)-苯甲酰胺]
- MIC [1, 4]: 2 µg/mL
- MIC [1]: 2 µg/mL
- MIC + TB47 [1]: < 0.125 µg/mL
- MIC [2]: 1.25 µg/mL (≈ 3.94 µM)
- MIC [2, 5]: 1.25 µg/mL (≈ 3.94 µM)
- MIC in synergy with TB47 [3]: 0.625 µg/mL

SMILES: O=C(Nc1ccc(Cl)nc1Cl)c1cc(Cl)ccc1O [化合物8, 5-氯-N-(2,6-二氯-3-吡啶基)-2-羟基苯甲酰胺]
- MIC [1, 4]: 4 µg/mL
- MIC + TB47 [1]: 0.25 µg/mL
- MIC [2]: 2.5 µg/mL (≈ 7.87 µM)
- MIC [2, 5]: 2.5 µg/mL (≈ 7.87 µM)
- MIC in synergy with TB47 [3]: 0.625 µg/mL

SMILES: O=C(Nc1nccc(C(F)(F)F)n1)c1cc(Cl)ccc1O [compound 15, 5-氯-2-羟基-N-(4-三氟甲基-2-嘧啶基)-苯甲酰胺]
- MIC [2, 5]: 5 µg/mL (≈ 15.7 µM)

SMILES: O=C(Nc1cc(C(F)(F)F)ncn1)c1cc(Cl)ccc1O [compound 16, 5-氯-2-羟基-N-(6-三氟甲基-4-嘧啶基)-苯甲酰胺]
- MIC [2]: 2.5 µg/mL (≈ 7.87 µM)
- MIC [2, 5]: 2.5 µg/mL (≈ 7.87 µM)
- MIC in synergy with TB47 [3]: 0.625 µg/mL

SMILES: O=C(Nc1cc(Cl)ncn1)c1cc(Cl)ccc1O [compound 14, 5-氯-N-(6-氯-4-嘧啶基)-2-羟基苯甲酰胺]
- MIC [2, 5]: 2.5 µg/mL (≈ 8.8 µM)

SMILES: O=C(Nc1cncc(C(F)(F)F)c1)c1cc(Cl)ccc1O [compound 5, 5-氯-2-羟基-N-(5-三氟甲基-3-吡啶基)-苯甲酰胺]
- MIC [2, 5]: 5 µg/mL (≈ 15.8 µM)

SMILES: O=C(Nc1nc2ccc(OC(F)(F)F)cc2s1)c1cc(Cl)ccc1O [compound 17, 5-氯-2-羟基-N-(6-三氟甲氧基-2-苯并噻唑基)-苯甲酰胺]
- MIC [2, 5]: 10 µg/mL (≈ 25.7 µM)

SMILES: O=C(Nc1ncc(Cl)s1)c1cc(Cl)ccc1O [compound 21, 5-氯-N-(5-氯-2-噻唑基)-2-羟基苯甲酰胺]
- MIC [2, 5]: 5 µg/mL (≈ 17.3 µM)

SMILES: O=C(Nc1ccc(C(F)(F)F)cn1)c1cc(Cl)ccc1O [化合物2, 5-氯-2-羟基-N-(5-三氟甲基-2-吡啶基)-苯甲酰胺]
- MIC [2]: 1.25 µg/mL (≈ 3.95 µM)
- MIC [2, 5]: 1.25 µg/mL (≈ 3.95 µM)

SMILES: O=C(Nc1ccc(Cl)cn1)c1cc(Cl)ccc1O [化合物1, 5-氯-N-(5-氯-2-吡啶基)-2-羟基苯甲酰胺]
- MIC [2, 5]: 5 µg/mL (≈ 17.7 µM)

SMILES: O=C(Nc1cc(Cl)nc(Cl)c1)c1cc(Cl)ccc1O [compound 6, 5-氯-N-(2,6-二氯-4-吡啶基)-2-羟基苯甲酰胺]
- MIC [2]: 1.25 µg/mL (≈ 3.94 µM)
- MIC [2, 5]: 1.25 µg/mL (≈ 3.94 µM)
- MIC in synergy with TB47 [3]: 0.625 µg/mL

SMILES: O=C(Nc1cnc(Cl)nc1)c1cc(Cl)ccc1O [compound 13, 5-氯-N-(2-氯-5-嘧啶基)-2-羟基苯甲酰胺]
- MIC [2, 5]: 5 µg/mL (≈ 17.6 µM)

SMILES: O=C(Nc1ccc(Cl)nn1)c1cc(Cl)ccc1O [compound 19, 5-氯-N-(6-氯-3-哒嗪基)-2-羟基苯甲酰胺]
- MIC [2, 5]: 10 µg/mL (≈ 35.2 µM)

SMILES: O=C(Nc1nnc(C(F)(F)F)s1)c1cc(Cl)ccc1O [compound 20, 5-氯-2-羟基-N-[5-三氟甲基-2-(1,3,4-噻二唑基)]-苯甲酰胺]
- MIC [2, 5]: 10 µg/mL (≈ 30.9 µM)

SMILES: O=C(Nc1cnc(Cl)cn1)c1cc(Cl)ccc1O [compound 9, 5-氯-N-(5-氯-2-吡嗪基)-2-羟基苯甲酰胺]
- MIC [2, 5]: 4 µg/mL (≈ 14.1 µM)

SMILES: O=C(Nc1ncc(Cl)cn1)c1cc(Cl)ccc1O [compound 12, 5-氯-N-(5-氯-2-嘧啶基)-2-羟基苯甲酰胺]
- MIC [2, 5]: 5 µg/mL (≈ 17.6 µM)

SMILES: O=C(Nc1cnc(Cl)c(Cl)c1)c1cc(Cl)ccc1O [化合物7, 5-氯-N-(5,6-二氯-3-吡啶基)-2-羟基苯甲酰胺]
- MIC [1, 4]: 4 µg/mL
- MIC + TB47 [1]: 0.25 µg/mL
- MIC [2, 5]: 2.5 µg/mL (≈ 7.87 µM)

SMILES: O=C(Nc1nc2ccc(C(F)(F)F)cc2s1)c1cc(Cl)ccc1O [化合物18, 5-氯-2-羟基-N-(6-三氟甲基-2-苯并噻唑基)-苯甲酰胺]
- MIC [2]: 5 µg/mL (≈ 13.4 µM)
- MIC [2, 5]: 5 µg/mL (≈ 13.4 µM)
- MIC in synergy with TB47 [3]: 0.625 µg/mL

SMILES: O=C(Nc1ccc(C(F)(F)F)nc1)c1cc(Cl)ccc1O [化合物3, 5-氯-2-羟基-N-(6-三氟甲基-3-吡啶基)-苯甲酰胺]
- MIC [1, 4]: 4 µg/mL
- MIC + TB47 [1]: 0.5 µg/mL
- MIC [2]: 4 µg/mL (≈ 12.6 µM)
- MIC [2, 5]: 4 µg/mL (≈ 12.6 µM)
- MIC in synergy with TB47 [3]: 0.25 µg/mL

Source: patent publication CN116283752A (priority 2023, dated 2023)
